Experimental data published in BindingDB's records for doi:10.1021/np50113a004 (1994).

Tests used:
[1] = biological target: T1, Integrin alpha-L (Homo sapiens, UniProt P20701); assay: Inhibition of LFA1 expressed in human JY cells interaction with ICAM1-IG expressed in human HeLa cell monolayer after 45 mins by cell adhesion assay
T1 sequence (P20701 whole entry): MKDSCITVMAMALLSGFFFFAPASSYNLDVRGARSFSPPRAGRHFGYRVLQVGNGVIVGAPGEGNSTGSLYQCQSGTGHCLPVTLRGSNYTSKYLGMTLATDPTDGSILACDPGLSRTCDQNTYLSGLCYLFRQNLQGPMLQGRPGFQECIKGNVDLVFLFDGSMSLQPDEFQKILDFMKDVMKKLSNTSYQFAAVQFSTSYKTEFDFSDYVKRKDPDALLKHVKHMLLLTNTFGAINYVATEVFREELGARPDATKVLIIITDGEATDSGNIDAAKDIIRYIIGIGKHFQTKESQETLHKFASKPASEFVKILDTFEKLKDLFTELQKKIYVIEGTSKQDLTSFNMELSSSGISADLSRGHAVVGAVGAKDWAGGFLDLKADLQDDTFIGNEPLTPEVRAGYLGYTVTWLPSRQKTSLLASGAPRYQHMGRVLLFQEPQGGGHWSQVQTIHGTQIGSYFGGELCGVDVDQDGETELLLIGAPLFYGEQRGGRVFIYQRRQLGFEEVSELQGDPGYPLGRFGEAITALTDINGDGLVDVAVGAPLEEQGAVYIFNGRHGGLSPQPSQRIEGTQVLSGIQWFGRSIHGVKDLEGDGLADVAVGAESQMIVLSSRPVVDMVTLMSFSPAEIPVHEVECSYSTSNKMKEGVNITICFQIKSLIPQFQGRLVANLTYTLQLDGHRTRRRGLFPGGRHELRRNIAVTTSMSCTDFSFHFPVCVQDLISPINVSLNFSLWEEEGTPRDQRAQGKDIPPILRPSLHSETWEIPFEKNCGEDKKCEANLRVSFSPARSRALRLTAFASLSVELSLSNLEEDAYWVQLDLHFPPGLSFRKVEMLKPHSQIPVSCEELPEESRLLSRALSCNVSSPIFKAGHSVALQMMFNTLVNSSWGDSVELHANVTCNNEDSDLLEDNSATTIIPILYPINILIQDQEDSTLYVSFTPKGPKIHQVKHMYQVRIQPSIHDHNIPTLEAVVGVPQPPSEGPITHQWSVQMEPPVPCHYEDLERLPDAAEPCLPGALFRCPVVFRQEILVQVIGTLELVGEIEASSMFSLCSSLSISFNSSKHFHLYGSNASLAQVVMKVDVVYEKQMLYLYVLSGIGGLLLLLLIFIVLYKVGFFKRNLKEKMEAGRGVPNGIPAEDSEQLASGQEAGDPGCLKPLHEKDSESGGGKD

[2] = Inhibition of LFA1 expressed in human JY cells interaction with ICAM1-IG expressed in human HeLa cell monolayer after 45 mins by cell adhesion assay

| SMILES | IC50 [1] [nM] | IC50 [2] [nM] |
| --- | --- | --- |
| CC(C)(O)C=CC(=O)[C@](C)(O)[C@H]1[C@H](O)C[C@@]2(C)[C@@H]3CC=C4[C@@H](CC(=O)C(=O)C4(C)C)[C@]3(C)C(=O)C[C@]12C [NSC-521777] | 950 | – |
| CC(C)(O)CCC(=O)[C@@](C)(O)C1[C@H](O)C[C@@]2(C)[C@@H]3CC=C4C(CC(=O)C(=O)C4(C)C)[C@]3(C)C(=O)C[C@]12C (stereo partly drawn) [Cucurbitacin L] | > 50000 | – |
| CC(C)(O)/C=C/C(=O)[C@@](C)(O)[C@H]1[C@H](O)C[C@@]2(C)[C@@H]3CC=C4[C@@H](C[C@H](O)C(=O)C4(C)C)[C@]3(C)C(=O)C[C@]12C | – | 1360 |
